Experiment [1] deals with T1, panel of 442 kinases (Homo sapiens, UniProt Q13470).
T1 construct: purchased KINOMEscan
T1 sequence (Q13470 1-666): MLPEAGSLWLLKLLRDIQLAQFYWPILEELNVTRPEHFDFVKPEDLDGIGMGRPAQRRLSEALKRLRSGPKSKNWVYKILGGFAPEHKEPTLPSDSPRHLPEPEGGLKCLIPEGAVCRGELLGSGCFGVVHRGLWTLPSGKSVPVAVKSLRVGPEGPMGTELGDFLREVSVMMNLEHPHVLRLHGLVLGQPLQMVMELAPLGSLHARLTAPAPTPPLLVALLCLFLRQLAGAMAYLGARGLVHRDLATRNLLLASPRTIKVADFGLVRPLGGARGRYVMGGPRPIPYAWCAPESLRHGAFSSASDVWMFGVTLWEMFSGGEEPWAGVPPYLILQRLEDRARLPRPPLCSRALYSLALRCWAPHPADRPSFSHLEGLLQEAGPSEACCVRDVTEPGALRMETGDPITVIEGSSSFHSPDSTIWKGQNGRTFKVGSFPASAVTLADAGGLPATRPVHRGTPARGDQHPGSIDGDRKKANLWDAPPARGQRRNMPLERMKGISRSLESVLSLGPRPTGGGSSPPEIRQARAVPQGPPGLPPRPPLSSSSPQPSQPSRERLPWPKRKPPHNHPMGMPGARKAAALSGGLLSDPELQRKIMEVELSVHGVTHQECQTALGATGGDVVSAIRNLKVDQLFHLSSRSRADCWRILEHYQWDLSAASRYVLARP
It is filed as binding. The following applies: kinase TNK1; compound concentration 10 µM. The source says:
(§1) We assessed the selectivity of members of this scaffold using the KINOMEscan methodology across a near comprehensive panel of 442 kinases [[18,27]].

The target of experiment [2] is T2, panel of 442 kinases (Homo sapiens, UniProt Q16832).
T2 construct: purchased KINOMEscan
T2 sequence (Q16832 22-855): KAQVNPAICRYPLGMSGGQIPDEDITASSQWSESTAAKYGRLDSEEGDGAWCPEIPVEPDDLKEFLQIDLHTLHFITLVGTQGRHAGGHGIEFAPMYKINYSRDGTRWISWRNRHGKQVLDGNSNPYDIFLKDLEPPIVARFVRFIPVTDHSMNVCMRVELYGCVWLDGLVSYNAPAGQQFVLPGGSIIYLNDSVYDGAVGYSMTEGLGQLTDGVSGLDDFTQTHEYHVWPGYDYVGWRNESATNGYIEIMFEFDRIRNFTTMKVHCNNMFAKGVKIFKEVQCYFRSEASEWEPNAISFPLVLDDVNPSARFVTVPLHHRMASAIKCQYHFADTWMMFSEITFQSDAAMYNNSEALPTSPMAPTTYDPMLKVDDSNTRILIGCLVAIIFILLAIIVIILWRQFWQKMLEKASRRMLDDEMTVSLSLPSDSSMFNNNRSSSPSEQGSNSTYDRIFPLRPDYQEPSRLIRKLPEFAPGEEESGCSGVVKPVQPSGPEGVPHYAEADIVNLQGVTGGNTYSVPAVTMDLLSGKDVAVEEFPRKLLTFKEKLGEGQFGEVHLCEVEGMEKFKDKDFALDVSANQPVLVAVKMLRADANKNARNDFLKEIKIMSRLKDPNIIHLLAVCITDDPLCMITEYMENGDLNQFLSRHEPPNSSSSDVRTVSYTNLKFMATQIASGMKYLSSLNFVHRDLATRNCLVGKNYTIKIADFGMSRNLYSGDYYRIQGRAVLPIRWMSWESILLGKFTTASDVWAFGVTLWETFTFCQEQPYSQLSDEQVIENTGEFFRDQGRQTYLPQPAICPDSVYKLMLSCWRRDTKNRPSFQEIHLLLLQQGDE
Type of experiment: binding. The following applies: Compound Concentration 10 µM.
Text: as §1

For `COc1cc(C(=O)N2CCC(N3CCN(C)CC3)CC2)ccc1Nc1ncc2c(n1)N(C)c1ccccc1C(=O)N2C` [15 (LRRK2-IN-1)], the “% Ctrl, TNK1” value on panel of 442 kinases [1] is given as 2.8 % Ctrl. Also, the “KINOMEscan: DDR2” value on panel of 442 kinases [2] was found to be 100.

Regarding `COc1cc(C(=O)N2CCC(N3CCN(C)CC3)CC2)ccc1Nc1ncc2c(n1)N1CCc3cccc(c31)C(=O)N2C` [Compound 24], at panel of 442 kinases [1], the “% Ctrl, TNK1” value was 5 % Ctrl.

`COc1cc(C(=O)N2CCC(N3CCN(C)CC3)CC2)ccc1Nc1ncc2c(n1)N(C1CCCC1)c1ccccc1C(=O)N2C` [Compound 25, 11-cyclopentyl-2-((2-methoxy-4-(4-(4-methylpiperazin-1-yl)piperidine-1-carbonyl)phenyl)amino)-5-methyl-5H-benzo[e]pyrimido[5,4-b][1,4]diazepin-6(11H)-one]: the “% Ctrl, TNK1” value on panel of 442 kinases [1] is reported as 7.8 % Ctrl. In addition, the “KINOMEscan: DDR2” value at panel of 442 kinases [2] is 96.

For the compound `CCOc1cc(C(=O)N2CCC(N3CCN(C)CC3)CC2)ccc1Nc1ncc2c(n1)N(C1CCCC1)c1ccccc1C(=O)N2C` [Compound 26], the “% Ctrl, TNK1” value at panel of 442 kinases [1] was 53 % Ctrl. Also, the “KINOMEscan: DDR2” value at panel of 442 kinases [2] is on record as 81.

The values above are taken from publication PMC3914206.
